This test has as its target Interleukin-17 receptor A/ (Homo sapiens, UniProt Q16552). The experiment in a line: Human IL-17A x IL-17RA TR-FRET assay. As for the experimental part:
The final total assay volume is 10 µL. […] The neutral control (NC) contains all the assay components, but DMSO instead of test compound. […] The fluorescence values for emission at 615 nm and 665 nm are loaded to the evaluation software Helios.
In general terms: In TR-FRET formats the signal depends on donor and acceptor labels being close together.

A word on the IC50: it is the concentration needed to halve the response being measured. The low end stands for inhibition by little substance, the high end for a need for much substance.

Interleukin-17 receptor A/, sequence (Q16552 whole entry): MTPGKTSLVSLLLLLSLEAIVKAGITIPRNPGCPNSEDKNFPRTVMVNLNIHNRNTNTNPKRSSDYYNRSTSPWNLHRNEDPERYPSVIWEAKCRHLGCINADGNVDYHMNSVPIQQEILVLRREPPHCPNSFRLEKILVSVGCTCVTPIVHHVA
Interleukin-17 receptor A/, sequence (Q96F46 whole entry, further chain): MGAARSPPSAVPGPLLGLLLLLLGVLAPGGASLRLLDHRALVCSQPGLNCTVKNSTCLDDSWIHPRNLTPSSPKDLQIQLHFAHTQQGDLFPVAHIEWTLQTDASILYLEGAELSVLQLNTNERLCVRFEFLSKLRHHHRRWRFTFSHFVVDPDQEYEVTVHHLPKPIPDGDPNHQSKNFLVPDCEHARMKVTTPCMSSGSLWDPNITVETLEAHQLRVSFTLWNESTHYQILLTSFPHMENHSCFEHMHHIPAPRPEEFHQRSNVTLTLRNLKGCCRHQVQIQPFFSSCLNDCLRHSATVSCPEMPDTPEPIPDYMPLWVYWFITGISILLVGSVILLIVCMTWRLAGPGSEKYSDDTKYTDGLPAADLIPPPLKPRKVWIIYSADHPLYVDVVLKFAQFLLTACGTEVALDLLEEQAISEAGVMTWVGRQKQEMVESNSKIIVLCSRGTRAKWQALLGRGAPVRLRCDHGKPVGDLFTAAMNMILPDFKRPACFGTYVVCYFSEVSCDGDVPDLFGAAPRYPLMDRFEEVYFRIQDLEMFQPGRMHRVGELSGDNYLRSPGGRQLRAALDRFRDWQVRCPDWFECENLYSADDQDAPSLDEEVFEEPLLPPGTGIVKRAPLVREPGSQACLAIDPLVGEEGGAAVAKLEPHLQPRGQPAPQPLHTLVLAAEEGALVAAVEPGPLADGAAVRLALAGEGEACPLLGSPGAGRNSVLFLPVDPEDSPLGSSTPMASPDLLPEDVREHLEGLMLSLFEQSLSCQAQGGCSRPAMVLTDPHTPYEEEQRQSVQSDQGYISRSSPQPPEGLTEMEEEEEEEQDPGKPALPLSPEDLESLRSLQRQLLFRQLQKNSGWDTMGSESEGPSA

The molecule `Cc1cc[n+]([O-])c(C)c1-c1ccc(NC(=O)[C@@H](NC(=O)c2conc2CN)C2CCCCC2)cc1` [WO2022091056, Example 79] yielded an IC50 of 918 nM.

As for `Cc1c(-c2ccc(NC(=O)[C@@H](NC(=O)c3ccnn3C)C3CCCCC3)cc2F)ccc[n+]1[O-]` [WO2022091056, Example 83], the IC50 turned out to be 1980 nM. This IC50 lies about 2.2-fold higher than the previous one.

`Cc1c[n+]([O-])cc(C)c1-c1ccc(NC(=O)[C@@H](NC(=O)c2ccnn2C)C2CCCCC2)cc1` [WO2022091056, Example 97] gave an IC50 of 1730 nM.

As for `Cc1c(-c2ccc(NC(=O)[C@@H](NC(=O)c3ccnn3C)[C@H]3CCCC(F)(F)C3)cc2F)c(Cl)cc[n+]1[O-]` [WO2022091056, Example 110], the IC50 amounted to 23 nM. Against the preceding molecule, the IC50 is about 75-fold lower.

On to `Cc1nccc(Cl)c1-c1ccc(NC(=O)[C@@H](NC(=O)c2ccnn2C)C2CCCCC2)cc1F` [WO2022091056, Example 137], for which 3790 nM corresponded to half-maximal inhibition (IC50).

Values taken from BindingDB's records for patent WO2022091056 (NOVARTIS AG, 2022).
